# Assay results taken from patent US8236492B2 (priority 2003, dated 2012).
# Tested on: ileal fluid dependant organism (IFDO)
# Assay type: cell-based
Structure (SMILES),Log10 Reduction of Colonies,efficacy of LpH phenols tested at equivocal concentrations
"Oc1ccc(Cl)cc1Cc1cc(Cl)ccc1O [2,2-Methylenebis(4-chlorophenol)]",3.8,
"Cc1cccc(O)c1C [2,3-Dimethylphenol]",4.1,
"Oc1cc(Cl)c(Cl)cc1Cl [2,4,5-Trichlorophenol]",4.9,
Oc1c(Cl)cc(Cl)c(Cl)c1Cc1c(O)c(Cl)cc(Cl)c1Cl [Hexachlorophene],3.6,
"CCC(C)(C)c1ccc(O)cc1 [PTAP, p-tertiary-amylphenol]",,less effective
Oc1ccccc1 [Phenol],3.6,
Cc1ccc(C(C)C)c(O)c1 [Thymol],3.2,
Oc1cc(Cl)ccc1Oc1ccc(Cl)cc1Cl [Triclosan],2.7,
Oc1ccc(Cl)cc1Cc1ccccc1 [o-Benzyl-p-chlorophenol],4.7,optimal
Oc1ccccc1-c1ccccc1 [o-Phenylphenol],4.8,optimal
Cc1cc(O)ccc1Cl [p-Chloro-m-cresol],4.3,
Cc1ccc(O)cc1 [p-Cresol],3.7,
